For this assay, the system named is houseflies. Format: in vivo, common houseflies. The settings on record: 1 mm^3 acetonic solution to ventral abdomen under CO2 narcosis; kill rate after 4 hours. The procedure:
ADMINISTRATION TEST WITH COMMON HOUSEFLIES
1 mm^3 of the acetonic solution of the active ingredients is administered to the ventral abdomen of houseflies under CO2 narcosis. The kill rate on the insects thus treated is determined after 4 hours, from which the mortality curve is calculated.
On to `CNC(=O)Oc1cc(C)c(C)cc1Cl` [Comparative substance III, 3,4-dimethyl-6-chloro-N-methylcarbamate], for which the LD50 is 10.0 /fly.
In the case of `CCc1cc(CC)cc(OC(=O)NC)c1` [3,5-diethyl-phenyl-N-methylcarbamate] it was 0.12 /fly; in that of `CNC(=O)Oc1cc(C)cc(C(C)C)c1` [Comparative substance II, 3-isopropyl-5-methyl-N-methylcarbamate], 0.26 /fly.

Source of the values: US4028399A, “Carbamate” (priority 1969, dated 1977).
